According to patent US11166940B2, “Treatment of cardiac disorders by blocking SK4 potassium channel” (Ramot at Tel-Aviv University Ltd., priority 2016, dated 2021):

Experiments:
WT mice = assay: In vivo telemetric ECG recording in WT (normal) mice; set-up: species or system mouse; settings: 20 mg/kg IP, WT mice at rest
Description: (§1) Telemetric ambulatory long-term ECG recordings, analogous to Holter monitoring in humans, were obtained with implantable transmitters. […] An implantable 3.5 grams wireless radiofrequency transmitter (DSI MM USA, device weight 3.8 grams) was aseptically inserted into a subcutaneous tissue pocket in the back as described in Katz, G., et al. Heart Rhythm 7, 1676-1682 (2010) and Kurtzwald-Josefson, E., et al. Heart Rhythm 11, 1471-1479 (2014)]. Animals were allowed to recover after surgery for at least 24 hours before any experiments. Baseline electrocardiograms (ECG) were obtained 15 minutes after IP injection of the appropriate vehicle (peanut oil or peanut oil supplemented with ethanol 1%). […] Telemetered ECG tracings were obtained in conscious mice at rest for one minute and during peak exercise (i.e. the first minute of recovery). In the treadmill exercise, mice were forced to exercise on a rodent treadmill; gradually increasing the speed up to a maximum of 15 m/minute. Ventricular tachycardia (VT) was defined as four or more consecutive ventricular beats. If this phenotype was consecutively observed for more than 15 seconds, it was defined as “sustained” ventricular tachycardia (SVT). Shorter VTs were characterized as “non-sustained” (NSVT). All other ventricular arrhythmias, such as premature beats, ventricular bigeminy, couplets and triplets were all defined as ventricular premature contractions (VPCs).
(§2) For this, a heart telemetry device was implanted in norma mice for continuous ECG recording at rest and during treadmill exercise. For each session, continuous ECG recording was performed with the same animals receiving first intraperitoneal (IP) injection of vehicle (peanut oil) and then 20 mg/kg clotrimazole.
as §2, with “A” for “For this, a”, “WT, CASQ2-D307H KI and CASQ2 KO” for “norma”, “the SK4 channel blocker.” for “20 mg/kg clotrimazole.”

SK4 K+ currents = target: T1, SK4 K+ currents (Mus musculus, UniProt O89109); assay: Voltage-ramp recording of TRAM-34-sensitive current in SAN cells from WT and CASQ2-D307H KI mice; type: cell-based; settings: 5 μM TRAM-34 added to solution 1
T1 construct: representative traces of SAN cells isolated from WT and CASQ2-D307H KI mice; endogenous in cells; host or cells: primary sinoatrial node (SAN) cells dissociated from WT and CASQ2-D307H KI mouse hearts
Description: Individual SAN cells were isolated from WT and CASQ2-D307H homozygous KI mice and recorded as described above, except that cells were held at −40 mV to improve their stability.
FIGS. 5A-B presents representative traces of SAN cells isolated from WT and CASQ2-D307H KI mice. […] The orange traces indicate that cells were exposed to blocker solution 1. […] The inward hump and substantial inward and outward currents disappeared upon exposure of cells to solution 1 (orange traces).

CASQ2 KO mice = assay: In vivo telemetric ECG recording in CASQ2 KO mice; set-up: species or system mouse; settings: 20 mg/kg IP; for number of mice, most severe ECG form: NSVT / number of mice, most severe ECG form: Normal (sinusal rhythm) / number of mice, most severe ECG form: SVT / number of mice, most severe ECG form: VPC: n=6
Description: as §1
as §2, with “A” for “For this, a”, “WT, CASQ2-D307H KI and CASQ2 KO” for “norma”, “the SK4 channel blocker.” for “20 mg/kg clotrimazole.”
The types of arrhythmic features were classified following their seriousness: sinusal rhythm (normal), ventricular premature contractions (VPC), non-sustained ventricular tachycardia (NSVT) and sustained ventricular tachycardia (SVT). For each mouse was considered the most severe form of arrhythmia recorded under ECG.

normal hiPSC-CMs = assay: Spontaneous APs in hiPS-CMs derived from normal individuals; type: cell-based, human; settings: 5 μM TRAM-34 added to 3 μM isoproterenol
Description: (§3) In all experiments, the coverslips were perfused at 33° C. with an external solution containing (in mM): 140 NaCl, 4 KCl, 11 Glucose, 1.2 MgCl2, 1.8 CaCl2, 5.5 HEPES titrated to pH 7.4 with NaOH and adjusted at 320 mOsm with sucrose.
FIG. 4E (Left) presents representative traces of spontaneous APs recorded in hiPS-CM derived from a normal individual. […] FIG. 4E (Right) are bar graphs presenting data summary of pacing rate (normalized to Ctrl; one-way ANOVA **P=0.0071, n=14), DD slope (paired t-test, ***P<0.0001, n=14) and APD50 (one-way ANOVA *P=0.0243, n=18).

CPVT2 hiPSC-CMs = assay: Spontaneous APs and DADs in hiPS-CMs derived from CPVT2 (CASQ2 D307H) patients; type: cell-based, human; settings: 5 μM TRAM-34 added to 3 μM isoproterenol
Description: as §3
FIG. 4F (Left) presents representative traces of spontaneous APs recorded in hiPS-CM derived from a CPVT2 (CASQ2 D307H) patients. From a regular pacing (black trace), DADs appeared when the cell was exposed to 3 μM isoproterenol (red trace, arrows). […] The suppression of cell 540 automaticity was reversible upon washout (blue trace). FIG. 4F (Right) present bar graphs showing data summary of pacing rate (n=17), on APD50 (n=17) and DADs (Normalized to Ctrl; one-way ANOVA***P=0.0001, n=15).

[1] = system: intact SAN tissue preparations from WT mice; assay: Spontaneous calcium transients ex vivo in intact SAN tissue from WT mice (Fluo-4 AM); type: cell-based, mouse; settings: 2 μM TRAM-34 in presence of 100 nM isoproterenol
Description: SAN tissue preparations were dissected ex vivo from WT and CASQ2-D307H KI mice as described in Torrente, A. G., et al. Proc Natl Acad Sci USA 112, 9769-9774 (2015). The dissected whole SAN tissue was pinned on a hand-made chamber and was incubated in a Tyrode solution containing 10 μM Fluo-4 AM (Thermo Fisher Scientific) and pluronic acid for 1 hour at 37° C. in the dark. The SAN tissue was washed in Tyrode at 37° C. in the dark for 10 minutes before experiments. Fluorescence of calcium transients was recorded using a photomultiplier (PTi D-104) at 35° C. and the analog signals were digitized using Digidata 1440 (Molecular Devices) and analyzed with pCLAMP 10.5 software.
To investigate the spontaneous calcium transients of the SAN, intact SAN tissue preparations dissected ex vivo from WT and CASQ2-D307H KI mice were exposed to Fluo-4 AM as previously described [Torrente, A. G., et al. Proc Natl Acad Sci USA 112, 9769-9774 (2015)].
FIG. 6A (Left) presents representative traces of spontaneous calcium transients recorded ex vivo in intact SAN tissue preparations from WT mice. […] Right: data summary of calcium transient rate (one-way-ANOVA***P=0.0003; n=12).

Clc1ccccc1C(c1ccccc1)(c1ccccc1)n1cccn1 [TRAM-34, 1-[(2-chlorophenyl)diphenylmethyl]-1H-pyrazole]
prolongation of the PR interval (WT mice): 20% | reduction of resting heart rate (WT mice; vs vehicle in same animal): 16±3% | TRAM-34-sensitive current density (SK4 K+ currents): TRAM-34-sensitive currents with similar densities were isolated | PR prolongation (CASQ2 KO mice; KO mice at rest, n=7): 46% | heart rate decrease (CASQ2 KO mice; KO mice at rest, n=7): 34±7% | sinus rate and PR interval (CASQ2 KO mice; KO mice during treadmill exercise): significant sinus bradycardia and PR interval prolongation | number of mice, most severe ECG form: NSVT (CASQ2 KO mice; KO at rest): 0 | number of mice, most severe ECG form: Normal (sinusal rhythm) (CASQ2 KO mice; KO at rest): 6 | number of mice, most severe ECG form: SVT (CASQ2 KO mice; KO at rest): 0 | number of mice, most severe ECG form: VPC (CASQ2 KO mice; KO at rest): 0 | number of mice, most severe ECG form: NSVT (CASQ2 KO mice; KO during exercise): 3 | number of mice, most severe ECG form: Normal (sinusal rhythm) (CASQ2 KO mice; KO during exercise): 3 | number of mice, most severe ECG form: SVT (CASQ2 KO mice; KO during exercise): 0 | number of mice, most severe ECG form: VPC (CASQ2 KO mice; KO during exercise): 0 | cells with suppression of the pacing (normal hiPSC-CMs): 10 out of 14 | maximal diastolic potential (MDP) (normal hiPSC-CMs): depolarized the maximal diastolic potential | slope of diastolic depolarization (DD) (normal hiPSC-CMs): significantly decreased the slope of diastolic depolarization | number of DADs (CPVT2 hiPSC-CMs): drastically reduced the number of DADs | spontaneous activity (CPVT2 hiPSC-CMs): reversible cessation of the spontaneous activity | pattern of the Ca2+ waves [1]: did not alter the pattern of the Ca^2+ waves
